Fragment found data for seven substances are collected here from PMC11271312 (Nature Communications, 2024).

Data set [1] is described as follows: 80% pooled plasma from dogs and 20% PBS (pH 7.4). As to conditions: dog, 37 °C, up to […].
Data set [2] can be described thus: 80% pooled plasma from rats and 20% PBS (pH 7.4). As to conditions: rat, 37 °C, up to […].
Data set [3] can be described thus: 80% pooled plasma from humans and 20% PBS (pH 7.4). As to conditions: human, 37 °C, up to […].
Data set [4] is described as follows: 80% pooled plasma from minipigs and 20% PBS (pH 7.4). As to conditions: minipig, 37 °C, up to […].
A short description of data set [5]: plasma from minipigs dosed intravenously with insulin icodec (2 nmol/kg). As to conditions: Göttingen Minipigs, up to 10 days after dosing.

As to B16H, desB30 | C18 diacid, the fragment found entry in data set [1] is listed as “B-chain (internal disulphide bond connecting Cys 7 with Cys 19), 24 h”; in data set [2] it was “B-chain (internal disulphide bond connecting Cys 7 with Cys 19), 24 h”; in data set [3], “B-chain (internal disulphide bond connecting Cys 7 with Cys 19), 24 h”; in data set [4], “B-chain (internal disulphide bond connecting Cys 7 with Cys 19), 5 h”.
For “A14E B16H B25H B29Nε-C20 diacid-LγGlu–2xAdo desB30 human insulin”, the fragment found entry was “insulin B-chain with internal disulphide Cys 7–Cys 19, 96 h” in data set [1]; “insulin B-chain with internal disulphide Cys 7–Cys 19, 24 h” in data set [2]; “insulin B-chain with internal disulphide Cys 7–Cys 19, 24 h” in data set [3]; “insulin B-chain with internal disulphide Cys 7–Cys 19, 48 h” in data set [4]; “free insulin icodec B-chain (disulphide Cys 7–Cys 19)” in data set [5].
Consider B25H, desB30 | C18 diacid, for which the fragment found result in data set [2] was “B-chain (internal disulphide bond connecting Cys 7 with Cys 19), 5 h”.
Turning to A14E, B25H, desB30 | C18 diacid, in data set [2], the fragment found result is on record as “B-chain (internal disulphide bond connecting Cys 7 with Cys 19), 48 h”.
Same read-out and setting: the same measure for A14E, desB30 | C18 diacid: “B-chain (internal disulphide bond connecting Cys 7 with Cys 19), 24 h”.
For A14E, B25H, desB30 | C20 diacid, the fragment found entry in data set [2] is “B-chain (internal disulphide bond connecting Cys 7 with Cys 19), 24 h”; in data set [3] it was “B-chain (internal disulphide bond connecting Cys 7 with Cys 19), 96 h”; in data set [4], “B-chain (internal disulphide bond connecting Cys 7 with Cys 19), 168 h”.
As to desB30 | C18 diacid, the fragment found entry in data set [2] is “B-chain (internal disulphide bond connecting Cys 7 with Cys 19), 2.5 h”.
